Assay results from publication PMC11855478, “Bicyclic N,S-Acetals Containing Fused Cysteine-Amide System as New Heterocyclic Class Targeting Human Farnesyltransferase (FTase-h)” (International Journal of Molecular Sciences, 2025).

Experiments:
OVCAR-3 (Ovarian Cancer) = assay: NCI one dose, OVCAR-3; format: cell-based, human; conditions: OVCAR-3, 1.00E-5 Molar one dose
Summary of the method: (§1)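 Testing ran at NCI on sixty human cancer lines. Exposure lasted 48 h. Viability was determined colorimetrically with sulforhodamine B.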

COLO 205 (Colon Cancer) = assay: NCI one dose, COLO 205; format: cell-based, human; conditions: COLO 205, 1.00E-5 Molar one dose
Procedure: 3.4. Cell Proliferation Assay
Selected compounds were tested on a panel of 60 human cancer cell lines at the National Cancer Institute (NCI), Germantown, MD, USA. The cytotoxicity studies were conducted using a 48 h exposure protocol using the sulfo-rhodamine B assay.

OVCAR-5 (Ovarian Cancer) = assay: NCI one dose, OVCAR-5; format: cell-based, human; conditions: OVCAR-5, 1.00E-5 Molar one dose
Summary of the method: as §1

KM12 (Colon Cancer) = assay: NCI one dose, KM12; format: cell-based, human; conditions: KM12, 1.00E-5 Molar one dose
Summary of the method: as §1

[1] = test system: HOP-92 (Non-Small Cell Lung Cancer); assay: NCI one dose, HOP-92; format: cell-based, human; conditions: HOP-92, 1.00E-5 Molar one dose
Summary of the method: as §1

HT29 (Colon Cancer) = assay: NCI one dose, HT29; format: cell-based, human; conditions: HT29, 1.00E-5 Molar one dose
Summary of the method: as §1

786-0 (Renal Cancer) = assay: NCI one dose, 786-0; format: cell-based, human; conditions: 786-0, 1.00E-5 Molar one dose
Summary of the method: as §1

MALME-3M (Melanoma) = assay: NCI one dose, MALME-3M; format: cell-based, human; conditions: 1.00E-5 Molar one dose
Summary of the method: (§2)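 Sulforhodamine B protein staining measured cell growth after cells from the NCI 60-line panel were exposed to compound for 48 h.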

[2] = test system: NCI-H23 (Non-Small Cell Lung Cancer); assay: NCI one dose, NCI-H23; format: cell-based, human; conditions: NCI-H23, 1.00E-5 Molar one dose
Summary of the method: as §1

SN12C (Renal Cancer) = assay: NCI one dose, SN12C; format: cell-based, human; conditions: 1.00E-5 Molar one dose
Summary of the method: as §1

IGROV1 (Ovarian Cancer) = assay: NCI one dose, IGROV1; format: cell-based, human; conditions: IGROV1, 1.00E-5 Molar one dose
Summary of the method: as §1

ACHN (Renal Cancer) = assay: NCI one dose, ACHN; format: cell-based, human; conditions: 1.00E-5 Molar one dose
Summary of the method: as §2

[3] = test system: A549/ATCC (Non-Small Cell Lung Cancer); assay: NCI one dose, A549/ATCC; format: cell-based, human; conditions: 1.00E-5 Molar one dose
Summary of the method: as §1

DU-145 (Prostate Cancer) = assay: NCI one dose, DU-145; format: cell-based, human; conditions: DU-145, 1.00E-5 Molar one dose
Summary of the method: as §1

SK-MEL-2 (Melanoma) = assay: NCI one dose, SK-MEL-2; format: cell-based, human; conditions: SK-MEL-2, 1.00E-5 Molar one dose
Summary of the method: as §1

CCRF-CEM (Leukemia) = assay: NCI one dose, CCRF-CEM; format: cell-based, human; conditions: 1.00E-5 Molar one dose
Summary of the method: as §1

RPMI-8226 (Leukemia) = assay: NCI one dose, RPMI-8226; format: cell-based, human; conditions: RPMI-8226, 1.00E-5 Molar one dose
Summary of the method: as §1

PC-3 (Prostate Cancer) = assay: NCI one dose, PC-3; format: cell-based, human; conditions: PC-3, 1.00E-5 Molar one dose
Summary of the method: as §1

[4] = test system: NCI/ADR-RES (Ovarian Cancer); assay: NCI one dose, NCI/ADR-RES; format: cell-based, human; conditions: 1.00E-5 Molar one dose
Summary of the method: as §1

A498 (Renal Cancer) = assay: NCI one dose, A498; format: cell-based, human; conditions: A498, 1.00E-5 Molar one dose
Summary of the method: as §1

HCC-2998 (Colon Cancer) = assay: NCI one dose, HCC-2998; format: cell-based, human; conditions: HCC-2998, 1.00E-5 Molar one dose
Summary of the method: as §1

[5] = target: human farnesyltransferase (FTase) (Homo sapiens, UniProt P49354+P49356); assay: FTase inhibitory assay (fluorescence, Dansyl-GCVLS); format: biochemical; conditions: for % FTI: inhibition of human FTase at 100 μM of tested compound, mean of two experiments
Summary of the method: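 Partially purified recombinant FTase with Dansyl-GCVLS and farnesyl pyrophosphate in Tris/HCl pH 7.5 (DTT, MgCl2, ZnCl2, octyl-glucoside); fluorescence (ex 340/em 486 nm) read 15 min at 30 °C. IC50 by regression for compounds inhibiting >60% at 100 µM; kinetics varied FPP (Dns-GCVLS 2.5 μM) or peptide (FPP 10 μM).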

K-562 leukaemia cells = assay: NCI one dose, K-562; format: cell-based, human; conditions: for Growth Percent: K-562, 1.00E-5 Molar one dose
Summary of the method: as §1

SW-620 (Colon Cancer) = assay: NCI one dose, SW-620; format: cell-based, human; conditions: SW-620, 1.00E-5 Molar one dose
Summary of the method: as §1

HCT-116 (Colon Cancer) = assay: NCI one dose, HCT-116; format: cell-based, human; conditions: HCT-116, 1.00E-5 Molar one dose
Summary of the method: as §1

SK-MEL-28 (Melanoma) = assay: NCI one dose, SK-MEL-28; format: cell-based, human; conditions: SK-MEL-28, 1.00E-5 Molar one dose
Summary of the method: as §1

UO-31 renal cancer cells = assay: NCI one dose, UO-31; format: cell-based, human; conditions: for Growth Percent: UO-31, 1.00E-5 Molar one dose
Summary of the method: as §1

M14 (Melanoma) = assay: NCI one dose, M14; format: cell-based, human; conditions: M14, 1.00E-5 Molar one dose
Summary of the method: as §1

Structure (SMILES)	Growth Percent (OVCAR-3 (Ovarian Cancer))	Growth Percent (COLO 205 (Colon Cancer))	Growth Percent (OVCAR-5 (Ovarian Cancer))	Growth Percent (KM12 (Colon Cancer))	Growth Percent [1]	Growth Percent (HT29 (Colon Cancer))	Growth Percent (786-0 (Renal Cancer))	Growth Percent (MALME-3M (Melanoma))	Growth Percent [2]	Growth Percent (SN12C (Renal Cancer))	Growth Percent (IGROV1 (Ovarian Cancer))	Growth Percent (ACHN (Renal Cancer))	Growth Percent [3]	Growth Percent (DU-145 (Prostate Cancer))	Growth Percent (SK-MEL-2 (Melanoma))	Growth Percent (CCRF-CEM (Leukemia))	Growth Percent (RPMI-8226 (Leukemia))	Growth Percent (PC-3 (Prostate Cancer))	Growth Percent [4]	Growth Percent (A498 (Renal Cancer))	also measured
COc1cc(CNC(=O)[C@@H]2CS[C@@]3(C)c4ccccc4C(=O)N23)cc(OC)c1OC [4bJ]	112.40%	105.48%	102.06%	106.18%	88.36%	82.56%	102.08%	108.52%	96.92%	91.58%	106.56%	97.41%	83.12%	108.72%	89.27%	90.73%	90.22%	89.97%	101.60%	90.55%	Growth Percent (HCC-2998 (Colon Cancer)): 95.49%; IC50 ([5]; human FTase): 4.35 µM; IC50 ([5]; human FTase in vitro): 4.35 µM; % FTI [5]: 74%; Growth Percent (K-562 leukaemia cells): 71.92%; Growth Percent (SW-620 (Colon Cancer)): 100.88%; Growth Percent (HCT-116 (Colon Cancer)): 98.10%; Growth Percent (SK-MEL-28 (Melanoma)): 103.28%; Growth Percent (UO-31 renal cancer cells): 90.29%; Growth Percent (M14 (Melanoma)): 108.34%
COc1ccc(CNC(=O)[C@@H]2CS[C@@]3(C)c4ccccc4C(=O)N23)cc1OC [4bI]	110.84%	107.68%	111.28%	102.81%	93.76%	77.04%	107.06%	106.59%	82.91%	96.04%	104.59%	96.90%	79.51%	103.50%	79.40%	81.76%	81.37%	88.41%	100.18%	83.43%	Growth Percent (HCC-2998 (Colon Cancer)): 96.29%; IC50 ([5]; human FTase in vitro): 0.0251 µM; % FTI [5]: 78%; inhibition at 10 µM (K-562 leukaemia cells; Homo sapiens, K562, 10 µM single dose, read-out: inhibition of growth of K-562 leukaemia cells): 34%; Growth Percent (K-562 leukaemia cells): 66.10%; Growth Percent (SW-620 (Colon Cancer)): 101.58%; Growth Percent (HCT-116 (Colon Cancer)): 95.39%; Growth Percent (SK-MEL-28 (Melanoma)): 104.89%; inhibition at 10 µM (UO-31 renal cancer cells; Homo sapiens, UO-31, 10 µM single dose, read-out: inhibition of growth of UO-31 renal cancer cells): 20%; Growth Percent (UO-31 renal cancer cells): 79.77%; Growth Percent (M14 (Melanoma)): 107.68%
COc1ccccc1CNC(=O)[C@@H]1CS[C@H]2c3ccccc3C(=O)N12 [4aG]	109.74%	111.29%	112.94%	105.74%	102.49%	77.01%	107.93%	108.91%	106.16%	110.50%	109.59%	109.98%	78.79%	106.12%	96.50%	101.17%	102.98%	102.91%	105.58%	84.76%	Growth Percent (HCC-2998 (Colon Cancer)): 120.86%; % FTI [5]: 21%; Growth Percent (K-562 leukaemia cells): 81.36%; Growth Percent (SW-620 (Colon Cancer)): 105.78%; Growth Percent (HCT-116 (Colon Cancer)): 105.23%; Growth Percent (SK-MEL-28 (Melanoma)): 116.98%; Growth Percent (UO-31 renal cancer cells): 94.39%; Growth Percent (M14 (Melanoma)): 104.36%
C[C@@]12SC[C@@H](C(=O)NCc3cccc(C(F)(F)F)c3)N1C(=O)c1ccccc12 [4bD]	109.46%	104.27%	104.21%	99.50%	88.94%	78.21%	100.40%	99.33%	99.06%	93.35%	99.72%	95.88%	77.57%	108.47%	85.25%	89.45%	85.05%	92.84%	100.57%	85.48%	Growth Percent (HCC-2998 (Colon Cancer)): 110.65%; % FTI [5]: 51%; Growth Percent (K-562 leukaemia cells): 81.47%; Growth Percent (SW-620 (Colon Cancer)): 108.66%; Growth Percent (HCT-116 (Colon Cancer)): 87.94%; Growth Percent (SK-MEL-28 (Melanoma)): 108.59%; Growth Percent (UO-31 renal cancer cells): 81.22%; Growth Percent (M14 (Melanoma)): 103.59%
